In article PMC6979384, “Characterization of the plant homeodomain (PHD) reader family for their histone tail interactions” (Epigenetics & Chromatin, 2020):

Key:
Assay in all cases: Histone peptide microarray
Format in all cases: binding, human
PHF23 = settings: GST-tagged PHF23; histone peptide array; arrays performed twice, n of 4
How it was run: (§1)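 Recombinant GST-PHD protein at 0.5 μM; 293-member modified histone peptide array; signals averaged from four repeats ± SD.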

ING3 = settings: GST-tagged ING3; histone peptide array; arrays performed twice, n of 4
How it was run: as §1

SP140L = settings: GST-tagged SP140L; histone peptide array; arrays performed twice, n of 4
How it was run: as §1

CHD5 (PPCC) = settings: GST-tagged CHD5 (PPCC = Dual PHD + Dual Chromodomain); histone peptide array; arrays performed twice, n of 4
How it was run: as §1

TAF3 = settings: GST-tagged TAF3; histone peptide array; arrays performed twice, n of 4
How it was run: as §1

AIRE (PP) = settings: GST-tagged AIRE (PP); histone peptide array; arrays performed twice, n of 4
How it was run: as §1

ING5 = settings: GST-tagged ING5; histone peptide array; arrays performed twice, n of 4
How it was run: as §1

BAZ2B = settings: GST-tagged BAZ2B; histone peptide array; arrays performed twice, n of 4
How it was run: as §1

PHRF1 (RP) = settings: GST-tagged PHRF1 (RP); histone peptide array; arrays performed twice, n of 4
How it was run: as §1

KDM7A = settings: GST-tagged KDM7A; histone peptide array; arrays performed twice, n of 4
How it was run: as §1

KDM5A (1) = settings: GST-tagged KDM5A (1); histone peptide array; arrays performed twice, n of 4
How it was run: as §1

CHD5 (PCC) = settings: GST-tagged CHD5 (PCC = PHD + Dual Chromodomain); histone peptide array; arrays performed twice, n of 4
How it was run: as §1

PHF21A = settings: GST-tagged PHF21A; histone peptide array; arrays performed twice, n of 4
How it was run: as §1

KDM4C (TTP) = settings: GST-tagged KDM4C (TTP = Tandem Tudor domain + PHD); histone peptide array; arrays performed twice, n of 4
How it was run: as §1

PHF8 = settings: GST-tagged PHF8; histone peptide array; arrays performed twice, n of 4
How it was run: as §1

DIDO1 = settings: GST-tagged DIDO1; histone peptide array; arrays performed twice, n of 4
How it was run: as §1

ING2 = settings: GST-tagged ING2; histone peptide array; arrays performed twice, n of 4
How it was run: as §1

MLL5 = settings: GST-tagged MLL5; histone peptide array; arrays performed twice, n of 4
How it was run: as §1

DPF2 (PPC2W2) = settings: GST-tagged DPF2 (PPC2W2 = Dual PHD + C2W2-type Zn-finger); histone peptide array; arrays performed twice, n of 4
How it was run: as §1

RAG2 = settings: GST-tagged RAG2; histone peptide array; arrays performed twice, n of 4
How it was run: as §1

PHF13 = settings: GST-tagged PHF13; histone peptide array; arrays performed twice, n of 4
How it was run: as §1

KDM5B (1) = settings: GST-tagged KDM5B (1); histone peptide array; arrays performed twice, n of 4
How it was run: as §1

TRIM66 (PB) = settings: GST-tagged TRIM66 (PB = PHD + Bromodomain); histone peptide array; arrays performed twice, n of 4
How it was run: as §1

MORC3 (CW) = settings: GST-tagged MORC3 (CW = CW-type Zn-finger); histone peptide array; arrays performed twice, n of 4
How it was run: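 Purified PHD finger domains fused to GST are screened against 293 synthetic histone peptides bearing one or several post-translational modifications. The protein is used at 0.5 μM, and the signal from four replicate arrays is averaged, with standard deviation given.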

PHF2 = settings: GST-tagged PHF2; histone peptide array; arrays performed twice, n of 4
How it was run: as §1

BPTF (PB) = settings: GST-tagged BPTF (PB = PHD + Bromodomain); histone peptide array; arrays performed twice, n of 4
How it was run: as §1

KDM5B (3) = settings: GST-tagged KDM5B (3); histone peptide array; arrays performed twice, n of 4
How it was run: as §1

CHD4 (PPCC) = settings: GST-tagged CHD4 (PPCC = Dual PHD + Dual Chromodomain); histone peptide array; arrays performed twice, n of 4
How it was run: as §1

ING1 = settings: GST-tagged ING1; histone peptide array; arrays performed twice, n of 4
How it was run: as §1

ING4 = settings: GST-tagged ING4; histone peptide array; arrays performed twice, n of 4
How it was run: as §1

KDM5A (3) = settings: GST-tagged KDM5A (3); histone peptide array; arrays performed twice, n of 4
How it was run: as §1

Substance | Array Heatmap signal, PHF23 (PHF23) | Array Heatmap signal, ING3 (ING3) | Array Heatmap signal, SP140L (SP140L) | Array Heatmap signal, CHD5 (PPCC) (CHD5 (PPCC)) | Array Heatmap signal, TAF3 (TAF3) | Array Heatmap signal, AIRE (PP) (AIRE (PP)) | Array Heatmap signal, ING5 (ING5) | Array Heatmap signal, BAZ2B (BAZ2B) | Array Heatmap signal, PHRF1 (RP) (PHRF1 (RP)) | Array Heatmap signal, KDM7A (KDM7A) | Array Heatmap signal, KDM5A (1) (KDM5A (1)) | Array Heatmap signal, CHD5 (PCC) (CHD5 (PCC)) | Array Heatmap signal, PHF21A (PHF21A) | Array Heatmap signal, KDM4C (TTP) (KDM4C (TTP)) | Array Heatmap signal, PHF8 (PHF8) | Array Heatmap signal, DIDO1 (DIDO1) | Array Heatmap signal, ING2 (ING2) | Array Heatmap signal, MLL5 (MLL5) | Array Heatmap signal, DPF2 (PPC2W2) (DPF2 (PPC2W2)) | Array Heatmap signal, RAG2 (RAG2) | further results
H4R3me2s: H4 1-23 [Peptide H4R3me2s] | 0.6199 | 0.498 | 0.3481 | 0.5547 | 0.3502 | 0.462 | 0.3741 | 0.5351 | 0.4693 | 0.4774 | 0.4765 | 0.8078 | 0.451 | 0.5129 | 0.4581 | 0.7583 | 0.6344 | 0.6336 | 0.7228 | 0.376 | Array Heatmap signal, PHF13 (PHF13): 0.6145; Array Heatmap signal, KDM5B (1) (KDM5B (1)): 0.7045; Array Heatmap signal, TRIM66 (PB) (TRIM66 (PB)): 0.614; Array Heatmap signal, MORC3 (CW) (MORC3 (CW)): 0.4671; Array Heatmap signal, PHF2 (PHF2): 0.5067; Array Heatmap signal, BPTF (PB) (BPTF (PB)): 0.3851; Array Heatmap signal, KDM5B (3) (KDM5B (3)): 0.5522; Array Heatmap signal, CHD4 (PPCC) (CHD4 (PPCC)): 0.556; Array Heatmap signal, ING1 (ING1): 0.5148; Array Heatmap signal, ING4 (ING4): 0.4621; Array Heatmap signal, KDM5A (3) (KDM5A (3)): 0.6488
H4S1p + R3me2a: H4 1-23 | 0.6265 | 0.5499 | 0.4294 | 0.617 | 0.5622 | 0.6422 | 0.4163 | 0.5882 | 0.5062 | 0.485 | 0.5298 | 0.908 | 0.4964 | 0.5709 | 0.44 | 0.8161 | 0.6378 | 0.6348 | 0.7324 | 0.4591 | Array Heatmap signal, PHF13 (PHF13): 0.7049; Array Heatmap signal, KDM5B (1) (KDM5B (1)): 0.7314; Array Heatmap signal, TRIM66 (PB) (TRIM66 (PB)): 0.7721; Array Heatmap signal, MORC3 (CW) (MORC3 (CW)): 0.5537; Array Heatmap signal, PHF2 (PHF2): 0.5511; Array Heatmap signal, BPTF (PB) (BPTF (PB)): 0.4592; Array Heatmap signal, KDM5B (3) (KDM5B (3)): 0.6926; Array Heatmap signal, CHD4 (PPCC) (CHD4 (PPCC)): 0.6213; Array Heatmap signal, ING1 (ING1): 0.5568; Array Heatmap signal, ING4 (ING4): 0.5743; Array Heatmap signal, KDM5A (3) (KDM5A (3)): 0.5495
H4S1p + R3me2s: H4 1-23 | 0.5739 | 0.5221 | 0.3935 | 0.6121 | 0.439 | 0.5797 | 0.4164 | 0.546 | 0.4781 | 0.5358 | 0.508 | 0.9435 | 0.5145 | 0.5709 | 0.4081 | 0.7409 | 0.6427 | 0.6789 | 0.7264 | 0.4186 | Array Heatmap signal, PHF13 (PHF13): 0.6986; Array Heatmap signal, KDM5B (1) (KDM5B (1)): 0.7342; Array Heatmap signal, TRIM66 (PB) (TRIM66 (PB)): 0.8775; Array Heatmap signal, MORC3 (CW) (MORC3 (CW)): 0.5092; Array Heatmap signal, PHF2 (PHF2): 0.514; Array Heatmap signal, BPTF (PB) (BPTF (PB)): 0.4125; Array Heatmap signal, KDM5B (3) (KDM5B (3)): 0.6247; Array Heatmap signal, CHD4 (PPCC) (CHD4 (PPCC)): 0.6243; Array Heatmap signal, ING1 (ING1): 0.5472; Array Heatmap signal, ING4 (ING4): 0.5288; Array Heatmap signal, KDM5A (3) (KDM5A (3)): 0.5274
